Assay results: patent US6391880B1, “Heterocyclic compounds useful as oxido-squalene cyclase inhibitors” (Zeneca Limited, priority 1997, dated 2002)

How the values were obtained:
[1] = biological target: T1, rat microsomal oxido-squalene cyclase (Rattus norvegicus, UniProt P48450); assay: In vitro test to measure inhibition of oxido-squalene cyclase; type: biochemical; details: at a concentration of 0.1 μM; rat liver microsomes
T1 construct: Microsomes are prepared from rat liver according to methods known in the art; from tissue; host or cells: rat liver microsomes
T1 sequence (P48450 1-733): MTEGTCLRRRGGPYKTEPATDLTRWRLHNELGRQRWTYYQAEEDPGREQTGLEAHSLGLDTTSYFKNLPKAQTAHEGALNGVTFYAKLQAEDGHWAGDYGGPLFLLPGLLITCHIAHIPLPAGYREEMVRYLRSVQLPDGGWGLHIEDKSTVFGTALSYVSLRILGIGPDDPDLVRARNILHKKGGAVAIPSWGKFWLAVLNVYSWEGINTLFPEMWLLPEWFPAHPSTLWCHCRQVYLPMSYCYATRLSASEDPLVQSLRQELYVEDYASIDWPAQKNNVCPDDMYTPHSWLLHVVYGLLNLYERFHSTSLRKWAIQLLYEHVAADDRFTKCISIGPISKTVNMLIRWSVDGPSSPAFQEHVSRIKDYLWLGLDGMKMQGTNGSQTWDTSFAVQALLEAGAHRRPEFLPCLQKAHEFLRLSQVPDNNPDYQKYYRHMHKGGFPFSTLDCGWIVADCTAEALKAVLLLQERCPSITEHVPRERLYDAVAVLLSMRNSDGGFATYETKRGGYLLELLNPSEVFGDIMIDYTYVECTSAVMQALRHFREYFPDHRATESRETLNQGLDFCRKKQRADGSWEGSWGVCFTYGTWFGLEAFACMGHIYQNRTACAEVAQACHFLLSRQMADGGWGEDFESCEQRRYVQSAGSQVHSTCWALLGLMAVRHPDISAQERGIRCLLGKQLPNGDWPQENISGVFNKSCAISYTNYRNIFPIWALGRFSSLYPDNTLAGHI
Description: (a) In Vitro Test to Measure Inhibition of Oxido-Squalene Cyclase
This test measures the inhibition of microsomal oxido-squalene cyclase in vitro by compounds at set concentrations in the incubation medium.
Microsomes are prepared from rat liver according to methods known in the art, for example, the method described in published European Patent Application No 324,421 and stored in liquid nitrogen prior to assay. Assay vials are kept at 37° C. throughout the incubation. The microsomes typically contain 15-20 mg of protein per ml of microsomes. For assay, 1 ml of microsomes are diluted by the addition of 722 μl of 50 mM phosphate buffer pH 7.4.
Phosphate buffered Tween 80 (polyoxyethylene sorbitan […]) is prepared by adding 0.1 g Tween 80 to 100 ml of 50 mM phosphate buffer.
A stock solution of oxido-squalene is made up as a solution in ethanol (0.65 mg. ml.^−1). 18 μl of radio-labelled oxido-squalene (1 μCi.ml^−1) is evaporated to dryness under a stream of nitrogen and redissolved in 1 ml of ethanol and 1 ml of the stock solution of oxido-squalene is added.
The test compound is dissolved in dimethyl sulphoxide to give a 10^−4M stock solution. […]
The samples are then placed in a water bath at 80° C. for 2 hours to saponify. […] Reaction rate is measured as the conversion of oxido-squalene to lanosterol, and the effects of test compounds are expressed as an inhibition of this process.

[2] = tested on: rat cholesterol biosynthesis; assay: In vivo test to measure inhibition of oxido-squalene cyclase / cholesterol biosynthesis in the rat; details: dosed at 2 mg/kg, oral
Description: (b) In Vivo Test to Measure Inhibition of Oxido-Squalene Cyclase
The ability of a compound to inhibit oxido-squalene cyclase and/or inhibit cholesterol biosynthesis may be assessed by a routine laboratory procedure carried out in the rat. The test involves administration of the compound to rats on a reversed lighting regimen. Female rats (35-55 g) are housed in reverse lighting conditions (red light from 0200 h-1400 h) for a period of about 2 weeks prior to test. Animals are allowed free access to chow and drinking water throughout this period. At test, animals should weigh 100-140 g. The rats are dosed orally with the compound (typically 10-50 mg/kg) formulated in apolyethylene glycol/hydroxypropylmethyl cellulose mix. After 1 hour the rats are given […] sodium mevalonate (15 μCi/kg) intraperitoneally. Two hours after administration of the compound the rats are terminated and a piece of liver removed and weighed. The tissue is saponified at 80° C. for 2 hours in an ethanolic/potassium hydroxide solution (80% w/v aqueous KOH diluted 1:10 with ethanol). Water (2 ml) is added and the mixture extracted with iso-hexane (2×5 ml). The organic extracts are combined, evaporated to dryness under a stream of nitrogen and the residue is dissolved in a mixture of acetonitrile/iso-propanol (300 μl). […] The radio-label content of each fraction is assessed using a radio chemical flow detector. […]

melting point [°C]	SMILES	inhibition of rat microsomal oxido-squalene cyclase [1]	inhibition of rat cholesterol biosynthesis [2]
–	O=C(N1CCC(c2ccncc2)CC1)N1CCN(S(=O)(=O)c2ccc(Br)cc2)CC1 [Example 2]	about 94%	about 85%
154 to 155	O=C(C1CCN(S(=O)(=O)c2ccc(Br)cc2)CC1)N1CCC(c2ccncc2)CC1	–	–
